Experimental data reported in ChEMBL document CHEMBL3137667, “[Drug-induced liver injury; fourteenth updated edition of the bibliographic database of liver injuries and related drugs]” (Gastroenterol Clin Biol, 2004).

Experiments:
[1] = human
[2] = human; remark: listed apart in the source
[3] = Highest frequency of moderate liver toxicity observed during clinical trials, expressed as a percentage. [column '% BIOL' in source]; conditions: human
[4] = human; remark: listed apart in the source
[5] = human; remark: listed apart in the source
[6] = human; remark: listed apart in the source
[7] = Highest frequency of acute liver toxicity observed during clinical trials, expressed as a percentage. [column '% AIGUE' in source]; conditions: human
[8] = human, serum, 4383 h
[9] = human; remark: listed apart in the source
[10] = human; remark: listed apart in the source
[11] = Presence of at least one case with successful reintroduction. [column 'REINT' in source]; conditions: human
[12] = human; remark: listed apart in the source
[13] = Times to onset, minimal and maximal, observed in the indexed observations. [column 'DELAI' in source]; conditions: human
[14] = human; remark: listed apart in the source
[15] = human, serum
[16] = Comments (NB not yet translated). [column 'COMMENTAIRES' in source]; conditions: human
[17] = Proposed mechanism(s) of liver damage. [column 'MEC' in source]; conditions: human
[18] = human, serum; remark: listed apart in the source
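For Hepatotoxicity (association with vascular disease) in this document: count of indexed literature references reporting vascular liver injury in humans, e.g. peliosis hepatitis, hepatic veno-occlusive disease or Budd-Chiari syndrome.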
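For Hepatotoxicity (benign tumour) in this document: value is a count of indexed literature references citing a benign tumour confirmed by histopathology.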
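For Hepatotoxicity (choleostasis) in this document: human cholestatic liver injury, shown by histopathology or by peak ALT or AST elevation over alkaline phosphatase ratio below 2, value counts indexed literature reports.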
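For Hepatotoxicity (chronic liver disease) in this document: chronic liver injury confirmed by histopathology or persistently raised serum aminotransferase activity beyond 6 months, value given as the count of indexed literature references.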
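For Hepatotoxicity (cirrhosis) in this document: value is a count of indexed literature references reporting cirrhosis confirmed by histopathology.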
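For Hepatotoxicity (cytolytic) in this document: human cytolytic liver injury, shown by histopathology or by a ratio above 5 of peak ALT or AST elevation to alkaline phosphatase elevation, value counts indexed references.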
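For Hepatotoxicity (granulomatous hepatitis) in this document: value is a count of indexed literature references reporting granulomatous liver disease confirmed by histopathology.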
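For Hepatotoxicity (malignant tumour) in this document: malignant tumour confirmed by histopathology, value gives the count of indexed literature references reporting it.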
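For Hepatotoxicity (severe hepatitis) in this document: human clinical data: severe hepatitis, meaning potentially life-threatening liver failure or clinically observed cases, the value counts how many indexed literature references report it.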
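For Hepatotoxicity (steatosis) in this document: steatosis confirmed by histopathology, value is the count of indexed references.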

Compound	Hepatotoxicity (severe hepatitis) [1]	Hepatotoxicity (granulomatous hepatitis) [2]	Hepatotoxicity (moderate) [3] [%]	Hepatotoxicity (malignant tumour) [4]	Hepatotoxicity (cytolytic) [5]	Hepatotoxicity (steatosis) [6]	Hepatotoxicity (acute) [7] [%]	Hepatotoxicity (chronic liver disease) [8]	Hepatotoxicity (cirrhosis) [9]	Hepatotoxicity (benign tumour) [10]	Hepatotoxicity (successful reintroduction) [11]	Hepatotoxicity (choleostasis) [12]	Hepatotoxicity (time to onset) [13]	Hepatotoxicity (association with vascular disease) [14]	Hepatotoxicity (moderate) [15]	Hepatotoxicity (comment) [16]	Hepatotoxicity (mechanism) [17]	Hepatotoxicity (acute) [18]	further results
CN1C(C(=O)Nc2ccccn2)=C(O)c2ccccc2S1(=O)=O [PIROXICAM]	5	1	73	0	13	0	0.8	0	0	0	yes	10	3 days - 1 year	0	12	AC_ANTI-N CHOLESTASE_PROLONGEE	Allergic, Toxic	19	
CCN(CC)CCNC(=O)c1ccc(N)cc1 [PROCAINAMIDE]		4		0	1	0		0	0	0	yes	4	3 hours - 3 months	0	1	AC_ANTI-M3	Allergic	4	Hepatotoxicity (severe hepatitis) ([1]; Liver): 0; Hepatotoxicity (moderate) ([3]; Liver): 0%; Hepatotoxicity (acute) ([7]; Liver): 0%
CCCNCC(O)COc1ccccc1C(=O)CCc1ccccc1 (stereo unspecified) [PROPAFENONE]	0	0	10.6	0	1	0	7.7	0	0	0	yes	6	6 days - 16 months	0	7	CHOLANGITE PRICHOLANGITE AC_ANTI-N	Allergic	9	
CO[C@H]1/C=C/O[C@@]2(C)Oc3c(C)c(O)c4c(O)c(cc(O)c4c3C2=O)NC(=O)/C(C)=C\C=C\[C@H](C)[C@H](O)[C@@H](C)[C@@H](O)[C@@H](C)[C@H](OC(C)=O)[C@@H]1C [RIFAMYCIN]	0	0	10	0	2	0	2.3	0	0	0	yes	2	6 hours - 13 days	0	5	CHOLANGITE I/ISONIAZIDE	Allergic	3	
CC(C)c1nc(CN(C)C(=O)N[C@H](C(=O)N[C@@H](Cc2ccccc2)C[C@H](O)[C@H](Cc2ccccc2)NC(=O)OCc2cncs2)C(C)C)cs1 [RITONAVIR]	1	0	44	0	11	1	32.1	0	0	0	yes	2	< 1 day - 6 months	0	10	REACTIVATION_HVB/HVC	Dose-dependant	14	
Cc1cn([C@H]2C=C[C@@H](CO)O2)c(=O)[nH]c1=O [STAVUDINE]	14	0	65.6	0	22	25	17.1	0	0	0	yes	5	6 days - 5 years	0	13	REACTIVATION_HVB/HVC	Dose-dependant, Mitochondrial toxicity, Toxic	29	
O=C(O)c1cc(/N=N/c2ccc(S(=O)(=O)Nc3ccccn3)cc2)ccc1O [SULFASALAZINE]	11	11	26.7	0	31	1	5.7	2	0	0	yes	14	1 day - 1 year	0	44	DUCTOPENIE RC/COTRIMOXAZOLE/MESALAZINE/OLSALAZINE	Allergic	50	
c1ccc2[nH]c(-c3cscn3)nc2c1 [THIABENDAZOLE]	0	0	36	0	2	0	0	0	2	0	yes	13	2 weeks - 1.5 years	0	2	CHOLESTASE_PROLONGEE DUCTOPENIE #CBP	Allergic	13	
O=C(O)c1cccs1 [THIOPHENE CARBOXYLIC ACID]	0	0	0	0	3	0	0	0	0	0	yes	0	3 days - 3 weeks	0	0	AC_ANTI-ML	Allergic	3	
CCOC(=O)NNc1nncc2ccccc12 [TODRALAZINE]	2	0	0	0	3	0	0	0	0	0	yes	0	11 days - 2 years	0	0	AC_ANTI-N/-MF	Allergic	3	
Cc1ccc(-c2nc3ccc(C)cn3c2CC(=O)N(C)C)cc1 [ZOLPIDEM]	0	0	0.4	0	2	0	0	0	0	0	yes	0	1 day - 3 days	0	3	ENCEPHALOPATHIE	Dose-dependant	2	
INTERFERON ALFA-2A	2	0	92	0	7	0	35.7	0	1	0	yes	2	1 week - 9 months	0	50	AC_ANTI-ML/-N AGGRAVATION_HAI/HVB I/PARACETAMOL CBP	Allergic, Dose-dependant	10	
